Assay results as given in patent US20250171415A1, “SALT OF SUBSTITUTED AMINO SIX-MEMBERED NITRIC HETEROCYCLIC COMPOUND, CRYSTAL FORM THEREOF, METHOD FOR PREPARING SAME, AND USE THEREOF” (SHANGHAI RUNSHI MEDICAL TECHNOLOGY CO., LTD., priority 2022, published 2025).
Counter-ions that a name gives are not always drawn.

Key:
[1] = test system: human lung cancer NCI-H1581 nude mouse subcutaneous xenograft tumor; experiment: Efficacy in human lung cancer NCI-H1581 nude mouse subcutaneous xenograft tumor model; format: in vivo
Description: The human lung cancer NCI-H1581 cell strain (preserved by Shanghai Institute of Materia Medica, Chinese Academy of Sciences) was inoculated subcutaneously in the right axilla of nude mice with an inoculation amount of the cells of 5×10^6 cells/mouse. The formed xenograft tumor was directly inoculated for use.
The tumor tissue in the vigorous growth phase was cut into about 1.5 mm^3 and was inoculated subcutaneously in the right axilla of the nude mouse under sterile conditions. The diameter of the subcutaneous xenograft tumor in the nude mouse was measured using a vernier caliper, and the animals were randomly grouped after the tumors grew to an average volume of about 150-160 mm^3. Animals in the Example 3 sample group were orally administered at 10 mg/kg, 5 mg/kg, and 2.5 mg/kg once a day for two consecutive weeks. Animals in the […] (AZD4547) were orally administered at 12.5 mg/kg once a day for two consecutive weeks. Throughout the experiment, the diameter of the xenograft tumor was measured 2 times a week, and the body weight of the mice was measured at the same time. The tumor volume (TV) was calculated as follows: TV=½×a×b^2, wherein a and b represent the length and width, respectively. The relative tumor volume (RTV) was calculated from the measurement results using the following formula: RTV=Vt/V0, wherein V0 is the tumor volume measured at the time of grouping and administration (d0), and Vt is the tumor volume at each measurement. The evaluation index of the anti-tumor activity was the relative tumor proliferation rate T/C (%), which was calculated as follows: T/C (%)=(TRTV/CRTV)×100%, wherein TRTV represents RTV of the treatment group; CRTV represents RTV of the negative control group.

[2] = Solubility experiments of compound of formula (I) and salts thereof; format: physicochemical; details: 25° C.
[3] = Solid stability study of dihydrochloride salt crystal form I; format: physicochemical
Description: (in a covered sample flask) for 7 days, and for physical stability at room temperature/92.5% RH (uncovered) for 10 days.

[4] = Water sorption and desorption experiments (DVS hygroscopicity); format: physicochemical; details: 40%-80% relative humidity, 25° C.
[5] = Solid grinding stability: dropwise addition of solvents and grinding; format: physicochemical; details: ground
[6] = Solid grinding stability: solid grinding, XRPD; format: physicochemical; details: 20 mg ground in a mortar for 2 min and 5 min
Method: 20 mg of the sample in Example 3 was weighed out, added to a mortar, and ground for 2 min and 5 min, respectively. Then, the sample was characterized by XRPD.

[7] = Na2HPO4-citric acid buffer (pH 4.6)
[8] = 40° C./75% RH (uncovered) for 7 days
[9] = 60° C. (covered sample flask) for 7 days

COc1cc(CCc2cc(NC(=O)c3ccc(N4C[C@@H](C)N[C@@H](C)C4)cc3)n[nH]2)cc(OC)c1 [AZD4547, reference compound]
T/C (relative tumor proliferation rate) ([1]; 12.5 mg/kg orally once a day for two consecutive weeks): 20.01%

CNC(=O)c1cccc2cc(Oc3ccnc(NC(=O)c4ccc(N5C[C@@H](C)N[C@@H](C)C5)cc4)c3)ccc12 [Compound of formula (I)]
Solubility [2, 7]: 45 µg/mL
Solubility ([2]; deionized water): 8 µg/mL

CNC(=O)c1cccc2cc(Oc3ccnc(NC(=O)c4ccc(N5C[C@@H](C)N[C@@H](C)C5)cc4)c3)ccc12 [Dihydrochloride salt crystal form I]
T/C (relative tumor proliferation rate) ([1]; 2.5 mg/kg orally once a day for two consecutive weeks): 49.06%
T/C (relative tumor proliferation rate) ([1]; 5 mg/kg orally once a day for two consecutive weeks): 33.22%
T/C (relative tumor proliferation rate) ([1]; 10 mg/kg orally once a day for two consecutive weeks): 17.17%
Effect on the growth of xenograft tumors ([1]; 10 mg/kg, 5 mg/kg and 2.5 mg/kg orally once a day for two consecutive weeks): significant inhibitory effect
Animal condition and mortality during the experiment ([1]; 10, 5 and 2.5 mg/kg orally once a day for two weeks, nude mice): no mice died
Purity [3, 8]: 99.86
XRPD (crystal form) [3, 8]: Not changed
Purity [3, 9]: 99.85
XRPD (crystal form) [3, 9]: Not changed
Purity ([3]; T0): 99.85
XRPD (crystal form) ([3]; room temperature/92.5% RH (uncovered) for 10 days): Not changed
Hygroscopicity (%) [4]: 0.65%
Solvent grinding result (crystal form) ([5]; Acetone added dropwise): Crystal form I
Solvent grinding result (crystal form) ([5]; Acetonitrile added dropwise): Crystal form I
Solvent grinding result (crystal form) ([5]; Butanone added dropwise): Crystal form I
Solvent grinding result (crystal form) ([5]; Ethanol added dropwise): Crystal form I
Solvent grinding result (crystal form) ([5]; Ethyl acetate added dropwise): Crystal form I
Solvent grinding result (crystal form) ([5]; Isopropanol added dropwise): Crystal form I
Solvent grinding result (crystal form) ([5]; Methanol added dropwise): Crystal form I
Crystal form of the ground sample (XRPD) [6]: not changed

C[C@@H]1COC(Nc2ccc3ncnc(Nc4ccc(OCc5nccs5)c(Cl)c4)c3c2)=N1.O=C(O)/C=C\C(=O)O [Maleate salt]
Solubility [2, 7]: 30 µg/mL
Solubility ([2]; deionized water): 2000 µg/mL
Hygroscopicity (%) [4]: 0.81%
